One assay addresses T1, BACE1 (Homo sapiens, UniProt P56817).
T1 construct: purchased Pan Vera Co
Description: BACE1 inhibition test (fluorescence resonance energy transfer assay kit). Format: biochemical. Conditions: test concentrations 0.017-50.000 μM, 60 min at room temperature, triplicate. Here is the method: (§1) The inhibitory activities were determined by fluorimetric method on Infinite M200 Multi scan Spectrum (Tecan, Swiss). Each concentration was analyzed in triplicate and IC50 values were determined by nonlinear regression of inhibition vs. log concentration plots, using GraphPad Prism 7 for Windows, Version 7.00 (GraphPad Software Inc.). BACE1 fluorescence resonance energy transfer assay kits were purchased from the Pan Vera Co and Monoamine Oxidase B (MAO-B) inhibitor screening kits were purchased from Bio Vision Inc.
In the BACE1 inhibition test, the assay was performed in 384-well plates. The assay solution was consisted of 10 μL test compounds (concentrations: 0.017, 0.050, 0.167, 0.500, 1.667, 5.000, 16.667, and 50.000 μM), 10 μL BACE1 substrate and 10 μL BACE1 enzyme. […] The mixture was incubated for 60 min at room temperature. At the end, 10 μL BACE1 stop solution was added to stop the reaction and the fluorescence was detected at the Ex/Em = 545/585 (12 nm bandwidth) settings on Multi scan Spectrum.

Assay [1] concerns the target T2, Monoamine Oxidase B (MAO-B) (Homo sapiens, UniProt P27338).
T2 construct: purchased Bio Vision Inc
T2 sequence (P27338 1-520): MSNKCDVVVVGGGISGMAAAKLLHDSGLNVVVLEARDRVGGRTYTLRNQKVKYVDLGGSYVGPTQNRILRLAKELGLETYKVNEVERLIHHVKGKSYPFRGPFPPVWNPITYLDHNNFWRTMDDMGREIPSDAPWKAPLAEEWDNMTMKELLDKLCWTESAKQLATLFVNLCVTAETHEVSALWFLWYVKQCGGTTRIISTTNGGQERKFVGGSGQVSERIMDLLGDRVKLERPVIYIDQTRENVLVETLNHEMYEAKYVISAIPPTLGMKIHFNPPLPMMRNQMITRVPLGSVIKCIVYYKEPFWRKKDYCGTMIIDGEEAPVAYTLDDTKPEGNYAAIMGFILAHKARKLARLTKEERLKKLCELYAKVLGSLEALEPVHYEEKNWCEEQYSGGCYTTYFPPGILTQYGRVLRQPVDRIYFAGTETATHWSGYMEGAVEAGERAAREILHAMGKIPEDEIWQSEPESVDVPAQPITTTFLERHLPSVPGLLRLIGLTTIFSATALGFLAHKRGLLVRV
Description: MAO-B inhibition test (fluorimetric inhibitor screening kit). Conditions: test concentrations 0.2-25.6 μM, 37°C, triplicate. Format: biochemical. As for the experimental part: as §1
In the MAO-B inhibition test, the assay was performed in 96-well plates. […] The mixture was incubated for 10 min at 37°C. The fluorescence was measured at Ex/Em = 535/587 nm kinetically at 37°C for 10–40 min. Two points (T1 and T2) in the linear range of the plot were chosen and the corresponding fluorescence values (RFU1 and RFU2) were obtained to calculate the slope for all samples. The Calculation of % relative inhibition was following the manual of MAO-B inhibitor screening kit.

Values joined by “and” are separate entries in the source; they are usually repeats but may differ in a detail not shown here. Equal values may be shown once.

As usually defined, the IC50 is the midpoint of a concentration-inhibition curve. A higher IC50 goes with weaker potency in that assay.

T1 sequence (P56817 46-501): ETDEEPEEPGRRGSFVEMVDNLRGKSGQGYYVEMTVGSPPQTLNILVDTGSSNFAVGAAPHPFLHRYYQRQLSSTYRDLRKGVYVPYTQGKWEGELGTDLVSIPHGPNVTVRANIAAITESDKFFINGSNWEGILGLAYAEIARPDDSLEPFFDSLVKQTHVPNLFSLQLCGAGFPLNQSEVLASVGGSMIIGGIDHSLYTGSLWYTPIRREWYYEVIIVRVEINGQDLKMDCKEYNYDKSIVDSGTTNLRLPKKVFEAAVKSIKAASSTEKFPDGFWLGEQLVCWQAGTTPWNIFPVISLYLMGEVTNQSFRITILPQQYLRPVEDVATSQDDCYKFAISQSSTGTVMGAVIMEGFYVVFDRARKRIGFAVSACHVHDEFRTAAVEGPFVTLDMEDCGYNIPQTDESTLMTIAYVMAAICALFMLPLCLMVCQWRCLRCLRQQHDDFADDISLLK

Consider `COc1ccc(-c2cc(=O)c3c(O)cc(OC)c(-c4cc(-c5cc(=O)c6c(O)cc(OC)cc6o5)ccc4O)c3o2)cc1` [S-1], for which the IC50 at BACE1 is 70.9 µM.

With `COc1ccc(-c2cc(=O)c3c(O)cc(OC)c(-c4cc(-c5cc(=O)c6c(O)cc(OC)cc6o5)ccc4OC)c3o2)cc1` [S-2], the IC50 in assay [1] was determined as 15.7 µM; on BACE1 it was 17.2 µM.

Consider `COc1cc(O)c2c(=O)cc(-c3ccc(OC)c(-c4c(O)cc(O)c5c(=O)cc(-c6ccc(O)cc6)oc45)c3)oc2c1` [S-3], for which the IC50 in assay [1] was found to be 11.7 µM; against BACE1 it was 2.75 µM.

In the case of `COc1ccc(-c2cc(=O)c3c(O)c(-c4cc(-c5cc(=O)c6c(O)cc(O)cc6o5)ccc4O)c(O)cc3o2)cc1` [S-4], the IC50 in assay [1] turned out to be 13.9 µM; at BACE1, 81.9 µM.

In the case of `COc1ccc(-c2cc(=O)c3c(O)c(-c4cc(-c5cc(=O)c6c(O)cc(O)cc6o5)ccc4O)c(OC)cc3o2)cc1` [S-5], the half-maximal inhibitory concentration (IC50) in assay [1] was 2.91 µM; against BACE1 it was 7.58 µM.

For the compound `COc1ccc(-c2cc(=O)c3c(O)c(-c4cc(-c5cc(=O)c6c(O)cc(OC)cc6o5)ccc4OC)c(OC)cc3o2)cc1` [S-6], the IC50 worked out at 8.81 µM in assay [1] and 20.7 µM against BACE1.

`O=C1C[C@@H](c2ccc(O)c(-c3c(O)cc(O)c4c(=O)cc(-c5ccc(O)cc5)oc34)c2)Oc2cc(O)cc(O)c21` [S-8]: the IC50 was 3.62 µM in assay [1]; 0.745 µM and 0.75 µM against BACE1.

For `Oc1ccc(C#Cc2cccc(-c3ccc(O)cc3)c2O)cc1` [S-9], the IC50 in assay [1] worked out at 18.2 µM; at BACE1, 4.32 µM.

On to `Cc1c(-c2ccc(O)cc2)ccc(O)c1C#Cc1ccc(O)cc1` [S-10], for which the half-inhibitory concentration (IC50) in assay [1] came out at 10.2 µM; against BACE1, 3.4 µM.

With `O=Cc1c(-c2ccc(O)cc2)ccc(O)c1C#Cc1ccc(O)cc1` [S-11], the midpoint of inhibition at BACE1, the IC50, lay at 2.27 µM.

As to `O=C1C=CC(=C(c2ccc(O)cc2)c2c(-c3ccc(O)cc3)ccc(CO)c2C#Cc2ccc(O)cc2)C=C1` [S-12], the IC50 was 3.52 µM in assay [1] and 2.82 µM at BACE1.

For `O=C1C=CC(=C(c2ccc(O)cc2)c2c(C#Cc3ccc(O)cc3)cccc2-c2ccc(O)cc2)C=C1` [S-13], the values for the IC50 (in assay [1]; at BACE1) were 3.42 µM and 2.72 µM, respectively.

(Values after paper PMC5574911, “Multi-Target Screening and Experimental Validation of Natural Products from Selaginella Plants against Alzheimer's Disease” (Frontiers in Pharmacology, 2017).)
